Measured values taken from patent US11572590B2, “Methods for evaluating tumor cell spheroids using 3D microfluidic cell culture device” (Dana-Farber Cancer Institute, Inc., priority 2017, dated 2023).
Read-outs that look alike come from different tables or passages of the source.

Tests used:
off-target kinases [1] = target: T1, off-target kinases (Homo sapiens, UniProt P33981); assay: SelectScreen Kinase Profiling, single point inhibition and IC50 for off-target kinases; format: biochemical; conditions: TTK, LanthaScreen Binding
T1 sequence (P33981 1-857): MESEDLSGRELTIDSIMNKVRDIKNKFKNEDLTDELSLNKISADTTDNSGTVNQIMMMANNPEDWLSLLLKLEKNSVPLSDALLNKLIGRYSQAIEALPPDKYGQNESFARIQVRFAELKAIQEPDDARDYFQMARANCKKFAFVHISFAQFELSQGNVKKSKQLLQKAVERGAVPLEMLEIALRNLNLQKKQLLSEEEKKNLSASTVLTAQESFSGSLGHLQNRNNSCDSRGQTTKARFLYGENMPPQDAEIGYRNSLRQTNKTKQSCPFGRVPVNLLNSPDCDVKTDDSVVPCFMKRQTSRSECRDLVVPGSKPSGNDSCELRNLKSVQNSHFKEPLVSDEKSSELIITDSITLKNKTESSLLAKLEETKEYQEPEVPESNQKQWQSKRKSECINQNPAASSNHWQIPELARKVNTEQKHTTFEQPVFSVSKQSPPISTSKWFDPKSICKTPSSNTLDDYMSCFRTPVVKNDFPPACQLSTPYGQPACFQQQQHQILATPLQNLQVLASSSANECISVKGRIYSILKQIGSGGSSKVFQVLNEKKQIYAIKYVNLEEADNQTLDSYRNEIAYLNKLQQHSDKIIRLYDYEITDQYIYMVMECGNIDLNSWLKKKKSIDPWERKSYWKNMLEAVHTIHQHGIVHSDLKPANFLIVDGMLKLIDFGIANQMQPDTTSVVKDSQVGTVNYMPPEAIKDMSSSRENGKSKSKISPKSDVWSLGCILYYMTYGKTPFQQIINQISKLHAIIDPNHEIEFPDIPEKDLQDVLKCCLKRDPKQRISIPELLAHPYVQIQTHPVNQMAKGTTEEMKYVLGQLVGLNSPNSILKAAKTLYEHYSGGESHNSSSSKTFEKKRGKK

off-target kinases [2] = target: T2, off-target kinases (Homo sapiens, UniProt P52333); assay: as above; format: biochemical; conditions: JAK3, ATP Km app, ZLYTE
T2 sequence (P52333 1-1124): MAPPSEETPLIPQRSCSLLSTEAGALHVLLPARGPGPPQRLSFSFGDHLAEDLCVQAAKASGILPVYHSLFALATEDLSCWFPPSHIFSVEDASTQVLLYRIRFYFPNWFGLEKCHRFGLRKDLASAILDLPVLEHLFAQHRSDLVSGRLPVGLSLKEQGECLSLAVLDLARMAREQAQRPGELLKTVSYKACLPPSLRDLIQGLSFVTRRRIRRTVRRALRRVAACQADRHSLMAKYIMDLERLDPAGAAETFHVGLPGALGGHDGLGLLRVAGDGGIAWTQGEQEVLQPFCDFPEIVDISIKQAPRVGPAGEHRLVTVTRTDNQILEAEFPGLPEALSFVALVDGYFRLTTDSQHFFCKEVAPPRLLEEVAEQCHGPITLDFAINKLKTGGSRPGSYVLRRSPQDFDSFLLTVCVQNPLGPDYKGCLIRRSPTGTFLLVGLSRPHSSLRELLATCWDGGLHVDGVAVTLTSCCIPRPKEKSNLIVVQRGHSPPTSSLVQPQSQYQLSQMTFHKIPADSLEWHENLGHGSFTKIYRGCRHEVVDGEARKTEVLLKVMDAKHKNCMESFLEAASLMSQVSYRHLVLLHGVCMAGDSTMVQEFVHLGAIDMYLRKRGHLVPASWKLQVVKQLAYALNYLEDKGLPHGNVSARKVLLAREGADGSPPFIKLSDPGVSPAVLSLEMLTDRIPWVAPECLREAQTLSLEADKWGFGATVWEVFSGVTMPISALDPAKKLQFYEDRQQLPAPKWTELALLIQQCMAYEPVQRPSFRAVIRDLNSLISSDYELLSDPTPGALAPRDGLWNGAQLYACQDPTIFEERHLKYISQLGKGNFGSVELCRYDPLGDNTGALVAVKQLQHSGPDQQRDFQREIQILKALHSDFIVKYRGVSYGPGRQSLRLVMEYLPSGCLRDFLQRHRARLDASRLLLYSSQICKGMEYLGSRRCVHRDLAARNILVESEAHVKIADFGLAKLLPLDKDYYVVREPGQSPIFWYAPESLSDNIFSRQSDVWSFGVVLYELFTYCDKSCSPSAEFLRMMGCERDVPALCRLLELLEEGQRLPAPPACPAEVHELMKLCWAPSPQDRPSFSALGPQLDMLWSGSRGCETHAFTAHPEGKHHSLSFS

Work on `N#Cc1cc(-c2ncnc(Nc3ccc(N4CCN(C5COC5)CC4)cc3)n2)ccc1OC1CCOCC1` [Compound 1, 5-(4-((4-(4-(oxetan-3-yl)piperazin-1-yl)phenyl)amino)-1,3,5-triazin-2-yl)-2-((tetrahydro-2H-pyran-4-yl)oxy)benzonitrile] yielded an inhibition (off-target kinases [1]; read-out: % Inhibition 1) of 33%, an inhibition (off-target kinases [1]; read-out: % Inhibition 2) of 34% and an inhibition (off-target kinases [1]; read-out: % Inhibition Avg) of 33%. The inhibition (off-target kinases [2]; read-out: % Inhibition 1) was 73%, the inhibition (off-target kinases [2]; read-out: % Inhibition 2) was 73% and the inhibition (off-target kinases [2]; read-out: % Inhibition Avg) was 73%.
